Reference: ChEMBL document CHEMBL5505958, “Optimization of sequence and chiral content enhances therapeutic potential of tilapia piscidin peptides” (Eur J Med Chem, 2024)
Activity calls are given as the source filed them.

How the values were obtained:
[1] = system: Klebsiella pneumoniae; assay: Antibacterial activity against Klebsiella pneumoniae BAA 2473 assessed as inhibition of bacterial growth in presence of 0.1 microg/ml of pepsin (reference value: 1.56 to 3.13 microM); assay type: functional
[2] = system: Escherichia coli; assay: Bactericidal activity against Escherichia coli 10675 assessed as inhibition of bacterial growth incubated for 16 to 20 hrs; assay type: functional; details: time 16-20 hrs
[3] = system: Klebsiella pneumoniae; assay: Antibacterial activity against Klebsiella pneumoniae BAA 2473 assessed as inhibition of bacterial growth in presence of 1 microg/ml of pepsin (reference value: 1.56 to 3.13 microM); assay type: functional
[4] = system: Klebsiella pneumoniae; assay: Bactericidal activity against Klebsiella pneumoniae BAA 2473 assessed as inhibition of bacterial growth in presence of 1 microg/ml of chymotrypsin (reference value: 1.56 to 3.13 microM); assay type: functional
[5] = system: Rhizopus arrhizus; assay: Antifungal activity against Rhizopus oryzae 34550 assessed as inhibition of fungal growth incubated for 16 to 20 hrs; assay type: functional; details: time 16-20 hrs
[6] = system: Salmonella typhimurium; assay: Bactericidal activity against Salmonella typhimurium DT104 assessed as inhibition of bacterial growth incubated for 16 to 20 hrs in presence of human serum; assay type: functional, Salmonella enterica subsp. enterica serovar Typhimurium; details: Salmonella enterica, time 16-20 hrs
[7] = system: Rhizopus arrhizus; assay: Fungicidal activity against Rhizopus oryzae 34550 assessed as inhibition of fungal growth incubated for 16 to 20 hrs in presence of human serum; assay type: functional; details: time 16-20 hrs
[8] = system: Klebsiella pneumoniae; assay: Antibacterial activity against Klebsiella pneumoniae BAA 2473 assessed as inhibition of bacterial growth in presence of 10 microg/ml of proteinase K (reference value: 1.56 to 3.13 microM); assay type: functional
[9] = system: Acinetobacter baumannii; assay: Bactericidal activity against Acinetobacter baumannii 10591 assessed as inhibition of bacterial growth incubated for 16 to 20 hrs; assay type: functional; details: time 16-20 hrs
[10] = system: Salmonella typhimurium; assay: Antibacterial activity against Salmonella typhimurium DT104 assessed as inhibition of bacterial growth incubated for 16 to 20 hrs; assay type: functional, Salmonella enterica subsp. enterica serovar Typhimurium; details: Salmonella enterica, time 16-20 hrs
[11] = system: Klebsiella pneumoniae; assay: Antibacterial activity against Klebsiella pneumoniae BAA 2473 assessed as inhibition of bacterial growth in presence of 1 microg/ml of proteinase K (reference value: 1.56 to 3.13 microM); assay type: functional
[12] = system: Klebsiella pneumoniae; assay: Antibacterial activity against Klebsiella pneumoniae TL 297 assessed as inhibition of bacterial growth incubated for 16 to 20 hrs in presence of human serum; assay type: functional; details: time 16-20 hrs
[13] = system: Klebsiella pneumoniae; assay: Induction of morphological changes in Klebsiella pneumoniae BAA 2473 assessed as membrane deformations with protruding granules at by transmission electron microscopy analysis; assay type: functional, organism-based
[14] = system: Enterococcus faecalis; assay: Antibacterial activity against Enterococcus faecalis 10066 assessed as inhibition of bacterial growth incubated for 16 to 20 hrs; assay type: functional; details: time 16-20 hrs
[15] = system: Klebsiella pneumoniae; assay: Bactericidal activity against Klebsiella pneumoniae BAA 2473 assessed as inhibition of bacterial growth in presence of 1 microg/ml of proteinase K (reference value: 1.56 to 3.13 microM); assay type: functional
[16] = system: Klebsiella pneumoniae; assay: Antibacterial activity against Klebsiella pneumoniae BAA 2473 assessed as inhibition of bacterial growth in presence of 0.1 microg/ml of trypsin (reference value: 1.56 to 3.13 microM); assay type: functional
[17] = system: Enterococcus faecium; assay: Bactericidal activity against Enterococcus faecium 10067 assessed as inhibition of bacterial growth incubated for 16 to 20 hrs in presence of human serum; assay type: functional; details: time 16-20 hrs
[18] = system: Klebsiella aerogenes; assay: Antibacterial activity against Enterobacter aerogenes 15630 assessed as inhibition of bacterial growth incubated for 16 to 20 hrs; assay type: functional; details: time 16-20 hrs
[19] = system: Staphylococcus aureus; assay: Bactericidal activity against Staphylococcus aureus 10780 assessed as inhibition of bacterial growth incubated for 16 to 20 hrs in presence of human serum; assay type: functional; details: time 16-20 hrs
[20] = system: Staphylococcus haemolyticus; assay: Bactericidal activity against Staphylococcus haemolyticus 15237 assessed as inhibition of bacterial growth incubated for 16 to 20 hrs; assay type: functional; details: time 16-20 hrs
[21] = system: Lipopolysaccharide (LPS); assay: Displacement of BODIPY-TR-cadaverine from Klebsiella pneumoniae BAA 2473 lipopolysaccharide (LPS) assessed as increase in fluorescence intensity at 3.125 uM by fluorescence spectrophotometric analysis; assay type: subcellular
[22] = system: Klebsiella pneumoniae; assay: Antibacterial activity against Klebsiella pneumoniae BAA 2473 assessed as inhibition of bacterial growth in presence of 1 microg/ml of trypsin (reference value: 1.56 to 3.13 microM); assay type: functional
[23] = system: Pseudomonas aeruginosa; assay: Antibacterial activity against Pseudomonas aeruginosa 19660 assessed as inhibition of bacterial growth incubated for 16 to 20 hrs in presence of human serum; assay type: functional; details: time 16-20 hrs
[24] = system: Klebsiella pneumoniae; assay: Antibacterial activity against Klebsiella pneumoniae BAA 2473 assessed as inhibition of bacterial growth incubated for 16 to 20 hrs; assay type: functional; details: time 16-20 hrs
[25] = system: Salmonella enterica; assay: Antibacterial activity against Salmonella enterica 15455 assessed as inhibition of bacterial growth incubated for 16 to 20 hrs in presence of human serum; assay type: functional; details: time 16-20 hrs
[26] = system: Klebsiella pneumoniae; assay: Antibacterial activity against Klebsiella pneumoniae BAA 2473 assessed as inhibition of bacterial growth in presence of 10 microg/ml of trypsin (reference value: 1.56 to 3.13 microM); assay type: functional
[27] = system: Salmonella typhimurium; assay: Antibacterial activity against Salmonella typhimurium DT104 assessed as inhibition of bacterial growth incubated for 16 to 20 hrs in presence of human serum; assay type: functional, Salmonella enterica subsp. enterica serovar Typhimurium; details: Salmonella enterica, time 16-20 hrs
[28] = system: Salmonella enterica; assay: Antibacterial activity against Salmonella enterica 15455 assessed as inhibition of bacterial growth incubated for 16 to 20 hrs; assay type: functional; details: time 16-20 hrs
[29] = system: Klebsiella pneumoniae; assay: Bactericidal activity against Klebsiella pneumoniae 10692 assessed as inhibition of bacterial growth incubated for 16 to 20 hrs; assay type: functional; details: time 16-20 hrs
[30] = system: Escherichia coli; assay: Bactericidal activity against Escherichia coli 10675 assessed as inhibition of bacterial growth incubated for 16 to 20 hrs in presence of human serum; assay type: functional; details: time 16-20 hrs
[31] = system: Cell membrane; assay: Induction of cell membrane depolarization in Klebsiella pneumoniae BAA 2473 assessed as increase in fluorescence intensity at 1 times MIC incubated for 40 mins by DiBAC4(3) fluorescent dye based assay; assay type: cell membranes
[32] = system: Cell membrane; assay: Induction of outer cell membrane permeabilization in Klebsiella pneumoniae BAA 2473 assessed as increase in fluorescence intensity by NPN uptake assay; assay type: cell membranes
[33] = system: Klebsiella pneumoniae; assay: Bactericidal activity against Klebsiella pneumoniae BAA 2473 assessed as inhibition of bacterial growth in presence of 0.1 microg/ml of chymotrypsin (reference value: 1.56 to 3.13 microM); assay type: functional
[34] = system: Klebsiella oxytoca; assay: Bactericidal activity against Klebsiella oxytoca 13985 assessed as inhibition of bacterial growth incubated for 16 to 20 hrs in presence of human serum; assay type: functional; details: time 16-20 hrs
[35] = system: Staphylococcus aureus; assay: Antibacterial activity against Staphylococcus aureus 10780 assessed as inhibition of bacterial growth incubated for 16 to 20 hrs in presence of human serum; assay type: functional; details: time 16-20 hrs
[36] = system: Klebsiella pneumoniae; assay: Bactericidal activity against Klebsiella pneumoniae BAA 2473 assessed as inhibition of bacterial growth in presence of 10 microg/ml of pepsin (reference value: 1.56 to 3.13 microM); assay type: functional
[37] = system: Klebsiella oxytoca; assay: Antibacterial activity against Klebsiella oxytoca 13985 assessed as inhibition of bacterial growth incubated for 16 to 20 hrs in presence of human serum; assay type: functional; details: time 16-20 hrs
[38] = system: Klebsiella pneumoniae; assay: Bactericidal activity against Klebsiella pneumoniae BAA 2473 assessed as inhibition of bacterial growth in presence of 1 microg/ml of pepsin (reference value: 1.56 to 3.13 microM); assay type: functional
[39] = system: Enterococcus faecium; assay: Bactericidal activity against Enterococcus faecium 10067 assessed as inhibition of bacterial growth incubated for 16 to 20 hrs; assay type: functional; details: time 16-20 hrs

H-FIHHIIGGLFSAGKAIHRLIRRRRR-OH
50 µM: MBC [19]
0.78 µM: MIC [18] | MBC [29] | MBC [39]
100 µM: MBC [7] | MBC [17] | MIC [25]
> 100 µM: MIC [3] | MBC [4] | MBC [6] | MIC [8] | MIC [11] | MIC [12] | MBC [15] | MIC [22] | MIC [23] | MIC [26] | MIC [27] | MBC [30] | MBC [34] | MIC [35] | MBC [36] | MIC [37] | MBC [38]
1.56 µM: MIC [1] | MIC [5] | MBC [9] | MIC [16] | MBC [20] | MIC [24] | MBC [33]
6.25 µM: MBC [2] | MIC [10]
3.13 µM: MIC [14] | MIC [28]
95%: Activity [21]
active: Activity [13] | Activity [31] | Activity [32]

CC(C)C[C@H](NC(=O)[C@@H](C)NC(=O)[C@@H](CCCCN)NC(=O)[C@H](CC(C)C)NC(=O)[C@@H](CC(C)C)NC(=O)[C@@H](CCCCN)NC(=O)[C@H](CCCCN)NC(=O)[C@@H](CC(C)C)NC(=O)[C@H](N)Cc1ccccc1)C(=O)N[C@H](Cc1ccccc1)C(=O)N[C@H](CO)C(=O)N[C@@H](C)C(=O)N1CCC[C@@H]1C(=O)N[C@H](CCCCN)C(=O)N[C@@H](C)C(=O)N[C@H](CC(C)C)C(=O)N[C@H](CCCCN)C(=O)N[C@@H](CCCNC(=N)N)C(=O)N[C@H](CC(C)C)C(=O)N[C@H](CC(C)C)C(=O)N[C@@H](CCCNC(=N)N)C(=O)N[C@H](CCCNC(=N)N)C(=O)N[C@H](CCCNC(=N)N)C(=O)N[C@@H](CCCNC(=N)N)C(=O)N[C@@H](CCCNC(=N)N)C(=O)O
3.13 µM: MBC [9] | MIC [10] | MIC [18] | MIC [28]
> 25 µM: MIC [14]
6.25 µM: MBC [6] | MIC [23] | MIC [27] | MBC [34] | MIC [35] | MIC [37]
12.5 µM: MBC [39]
1.56 µM: MBC [2] | MIC [5] | MIC [12] | MBC [20] | MBC [36] | MBC [38]
100 µM: MFC [7] | MBC [17]
> 100 µM: MBC [19]
active: Activity [13] | Activity [31] | Activity [32]
25 µM: MBC [29]
100%: Activity [21]
0.78 µM: MIC [1] | MIC [3] | MBC [4] | MIC [8] | MIC [11] | MBC [15] | MIC [16] | MIC [22] | MIC [24] | MIC [25] | MIC [26] | MBC [30] | MBC [33]
